Measurements reported in US8980934B2, “Kinase inhibitors and method of treating cancer with same” (University Health Network, priority 2012, dated 2015).

What was measured:
Assay type in all cases: cell-based
[1] = system: HCT116 colon cancer cells; experiment: Cancer cell growth inhibition, Sulforhodamine B assay; conditions: Homo sapiens, HCT-116, 120 h; HCT116, 5 days culture, SRB; read-out: Cancer Cell Line GI50 Range HCT116
Description: (§1) Breast cancer cells (MDA-MB-231), colon cancer cells (HCT116) and ovarian cancer cells (PA-1) were seeded (1000 to 4000 in 80 μl per well depending on the cell growth rate) into 96 well plates 24 hours before compound overlay. Compounds were prepared as 10 mM stock solutions in 100% DMSO which were diluted with DMEM (Dulbecco's Modified Eagle's Medium) cell growth Medium (Invitrogen, Burlington, ON, Canada) containing 10% FBS (Fetal Bovine Serum) to concentrations ranging from 50 nM to 250 μM. Aliquots (20 μl) from each concentration were overlaid to 80 μl of the pre-seeded cells in the 96 well plates to make final concentrations of 10 nM to 50 μM. The cells were cultured for 5 days before the Sulforhodamine B assay (SRB) was performed to determine the compound's cell growth inhibition activity.
(§2) Sulforhodamine B (purchased from Sigma, Oakville, ON, Canada) is a water-soluble dye that binds to the basic amino acids of the cellular proteins. Thus, colorimetric measurement of the bound dye provides an estimate of the total protein mass that is related to the cell number. the cells are fixed in situ by gently aspirating off the culture media and adding 50 μl ice cold 10% Trichloroacetic Acid (TCA) per well and incubate at 4° C. for 30-60 min. The plates are washed with H2O five times and allowed to air dry for 5 min. Addition of 50 μl 0.4% (w/v) SRB solution in 1% (v/v) acetic acid to each well and incubatation for 30 min at RT completes the staining reaction. Following staining, plates are washed four times with 1% acetic acid to remove unbound dye and then allowed to air dry for 5 min. The stain is solubilized with 100 μl of 10 mM Tris pH 10.5 per well. Absorbance is read at 570 nm.
(§3) The percentage (%) of relative growth inhibition was calculated by comparing to DMSO treated only cells (100%). GI50's were determined for compounds with cytotoxic activity. The GI50 was calculated using GraphPad PRISM software (GraphPad Software, Inc., San Diego, Calif., USA). GI50 (growth inhibition) is the compound concentration that causes 50% inhibition of cell growth.
(§4) In Table 1 below, GI50 value ranges for several compound examples against breast cancer cell lines (MDA-MB-231), colon cancer cell lines (HCT116) and ovarian cancer cell lines (PA-1) are given. […] The GI50 ranges are indicated as “A,” “B,” and “C,” for values less than or equal to 0.1 μM; those greater than 0.1 μM and less than or equal to 0.5 μM; and those greater than 0.5 μM, respectively.

[2] = system: MDA-MB-231 breast cancer cells; experiment: as above; conditions: Homo sapiens, 120 h; MDA-MB-231, 5 days culture, SRB; read-out: Cancer Cell Line GI50 Range MDA-MB-231
Description: as §1, §2, §3, §4

[3] = system: PA-1 ovarian cancer cells; experiment: as above; conditions: 120 h; PA-1, 5 days culture, SRB; read-out: Cancer Cell Line GI50 Range PA-1
Description: as §1, §2, §3, §4

[4] = system: colon 12 tumor initiating cells; experiment: Colon tumor-initiating cell growth inhibition, Alamar Blue assay; conditions: 216 h, colon TICs, 9 days culture, read-out: Tumor Initiating Cell Line GI50 Range colon 12
Description: (§5) Non-tissue or tissure cultured treated T-75 flask and 96-well plates were purchased from VWR. Vitamin B-27 supplement, MEM NEAA (minimum essential medium non essential amino acids), sodium pyruvate, L-glutamine, N2 supplement, penicillin-streptomycin and fungizone/amphotericin B were obtained from Invitrogen. Lipid mixture, heparin and EGF were purchased from Sigma; bFGF from BD Biosciences. Colon tumor initiating cells (TICs) were routinely maintained using non-tissue cultured treated T-75 flasks in DMEM:F12 medium containing 0.2XB-27 supplement, 4 ug/ml heparin, 1XMEM NEAA, 1Xsodium pyruvate, 1 mM glutamine, 10 pg/ul bFGF, 20 pg/ul EGF, 1×N2 supplement, lipid mixture, penicillin-streptomycin and fungizone/amphotericin B. Ovarian TICs were routinely maintained using tissue cultured treated T-75 flasks in DMEM:F12 medium containing 1XB-27 supplement, 4 ug/ml heparin, 20 pg/ul bFGF, 20 pg/ul EGF and penicillin-streptomycin.
(§6) Compounds described herein were dissolved in DMSO and further diluted in cell culture medium for GI50 determination. Colon TICs were trypsinized and seeded into non-tissue cultured treated 96-well plates with 4,000 cells/well. After 24 h, compound was added into the cell culture at different concentrations, and the final concentration of DMSO was adjusted to 0.1%. Cells were then cultured at 37° C. for 9 days. Ovarian TICs were trypsinized and seeded into tissue cultured treated 96-well plates with 1,000 cells/well. After 24 h, compound was added into the cell culture at different concentrations, and the final concentration of DMSO was adjusted to 0.1%. Cells were then cultured at 37° C. for 6 days. Cell viability was assessed by Alamar Blue assay: 10 ul of Alamar Blue was added into each well. After 4 hours incubation at 37° C., fluorescence was recorded at excitation 544 and emission 590. GI50 (Growth inhibition) was calculated using GraphPad Prism 4.0 software. Cell growth inhibition data for compounds described herein is tabulated below (Table 2). The GI50 ranges are indicated as “A,” and “B”, for values less than or equal to 0.1 μM: those greater than 0.1 μM and less than or equal to 0.5 μM, respectively.

[5] = system: ovarian 2393A tumor initiating cells; experiment: Ovarian tumor-initiating cell growth inhibition, Alamar Blue assay; conditions: 144 h, ovarian TICs, 6 days culture, read-out: Tumor Initiating Cell Line GI50 Range ovarian 2393A
Description: as §5, §6

SMILES: O=C(Nc1ccc2[nH]nc(-c3ccc(N4CC5(COC5)C4)cc3)c2c1)C(c1ccsc1)N1CCCC1 (stereo not drawn) [Example A1, N-(3-(4-(2-oxa-6-azaspiro[3.3]heptan-6-yl)phenyl)-1H-indazol-5-yl)-2-(pyrrolidin-1-yl)-2-(thiophen-3-yl)acetamide]
- GI50 [1]: ≤ 100 nM
- GI50 [2]: ≤ 100 nM
- GI50 [3]: ≤ 100 nM
- GI50 [4]: ≤ 100 nM
- GI50 [5]: ≤ 100 nM

SMILES: O=C(N[C@H](c1ccccn1)C1CCCC1)c1ccc2[nH]nc(-c3ccc(N4CC5(COC5)C4)cc3)c2c1 [Example A2, (S)-3-(4-(2-oxa-6-azaspiro[3.3]heptan-6-yl)phenyl)-N-(cyclopentyl(pyridin-2-yl)methyl)-1H-indazole-5-carboxamide]
- GI50 [1]: ≤ 100 nM
- GI50 [2]: ≤ 100 nM
- GI50 [3]: ≤ 100 nM
- GI50 [4]: ≤ 100 nM
- GI50 [5]: ≤ 100 nM

SMILES: Cc1ccccc1C(NC(=O)c1ccc2[nH]nc(-c3ccc(N4CC5(COC5)C4)cc3)c2c1)C1CC1 (stereo not drawn) [Example A3, 3-(4-(2-Oxa-6-azaspiro[3.3]heptan-6-yl)phenyl)-N-(cyclopropyl(o-tolyl)methyl)-1H-indazole-5-carboxamide]
- GI50 [1]: ≤ 100 nM
- GI50 [2]: 100 to 500 nM
- GI50 [3]: ≤ 100 nM
- GI50 [4]: ≤ 100 nM
- GI50 [5]: 100 to 500 nM

SMILES: O=C(NC(c1ccccn1)C1CC1)c1ccc2[nH]nc(-c3ccc(N4CC5(COC5)C4)cc3)c2c1 (stereo not drawn) [Example A4, 3-(4-(2-Oxa-6-azaspiro[3.3]heptan-6-yl)phenyl)-N-(cyclopropyl(pyridin-2-yl)methyl)-1H-indazole-5-carboxamide]
- GI50 [1]: ≤ 100 nM
- GI50 [2]: ≤ 100 nM
- GI50 [3]: ≤ 100 nM
- GI50 [4]: 100 to 500 nM
- GI50 [5]: ≤ 100 nM

SMILES: O=C(N[C@H](c1ccccn1)C1CC1)c1ccc2[nH]nc(-c3ccc(N4CC5(COC5)C4)cc3)c2c1 [Example A5, (S)-3-(4-(2-Oxa-6-azaspiro[3.3]heptan-6-yl)phenyl)-N-(cyclopropyl(pyridin-2-yl)methyl)-1H-indazole-5-carboxamide]
- GI50 [1]: ≤ 100 nM
- GI50 [2]: ≤ 100 nM
- GI50 [3]: ≤ 100 nM
- GI50 [4]: 100 to 500 nM
- GI50 [5]: ≤ 100 nM

SMILES: O=C(N[C@@H](c1ccccn1)C1CC1)c1ccc2[nH]nc(-c3ccc(N4CC5(COC5)C4)cc3)c2c1 [Example A6, (R)-3-(4-(2-oxa-6-azaspiro[3.3]heptan-6-yl)phenyl)-N-(cyclopropyl(pyridin-2-yl)methyl)-1H-indazole-5-carboxamide]
- GI50 [1]: ≤ 100 nM
- GI50 [2]: 100 to 500 nM
- GI50 [3]: ≤ 100 nM
- GI50 [4]: 100 to 500 nM
- GI50 [5]: 100 to 500 nM

SMILES: O=C(NC(c1ccccn1)C1CCCC1)c1ccc2[nH]nc(-c3ccc(N4CC5(COC5)C4)cc3)c2c1 (stereo not drawn) [Example A7, 3-(4-(2-Oxa-6-azaspiro[3.3]heptan-6-yl)phenyl)-N-(cyclopentyl(pyridin-2-yl)methyl)-1H-indazole-5-carboxamide]
- GI50 [1]: ≤ 100 nM
- GI50 [2]: ≤ 100 nM
- GI50 [3]: ≤ 100 nM
- GI50 [4]: ≤ 100 nM
- GI50 [5]: ≤ 100 nM

SMILES: O=C(N[C@@H](c1ccccn1)C1CCCC1)c1ccc2[nH]nc(-c3ccc(N4CC5(COC5)C4)cc3)c2c1 [Example A8, (R)-3-(4-(2-Oxa-6-azaspiro[3.3]heptan-6-yl)phenyl)-N-(cyclopentyl(pyridin-2-yl)methyl)-1H-indazole-5-carboxamide]
- GI50 [1]: ≤ 100 nM
- GI50 [2]: ≤ 100 nM
- GI50 [3]: ≤ 100 nM
- GI50 [4]: ≤ 100 nM
- GI50 [5]: ≤ 100 nM

SMILES: O=C(N[C@H](c1ccccc1)C1CC1)c1ccc2[nH]nc(-c3ccc(N4CC5(COC5)C4)cc3)c2c1 [Example A10, 3-(4-(2-Oxa-6-azaspiro[3.3]heptan-6-yl)phenyl)-N-((S)-cyclopropyl(phenyl)methyl)-1H-indazole-5-carboxamide]
- GI50 [1]: ≤ 100 nM
- GI50 [2]: 100 to 500 nM
- GI50 [3]: ≤ 100 nM
- GI50 [4]: ≤ 100 nM
- GI50 [5]: 100 to 500 nM

SMILES: CC(C)C(NC(=O)c1ccc2[nH]nc(-c3ccc(N4CC5(COC5)C4)cc3)c2c1)c1ccccc1Cl (stereo not drawn) [Example A11, 3-(4-(2-Oxa-6-azaspiro[3.3]heptan-6-yl)phenyl)-N-(1-(2-chlorophenyl)-2-methylpropyl)-1H-indazole-5-carboxamide]
- GI50 [1]: ≤ 100 nM
- GI50 [2]: ≤ 100 nM
- GI50 [3]: ≤ 100 nM
- GI50 [4]: ≤ 100 nM
- GI50 [5]: ≤ 100 nM

SMILES: CC(C)[C@H](NC(=O)c1ccc2[nH]nc(-c3ccc(N4CC5(COC5)C4)cc3)c2c1)c1ccccc1Cl [Example A12, 3-(4-(2-Oxa-6-azaspiro[3.3]heptan-6-yl)phenyl)-N-((S)-1-(2-chlorophenyl)-2-methylpropyl)-1H-indazole-5-carboxamide]
- GI50 [1]: ≤ 100 nM
- GI50 [2]: ≤ 100 nM
- GI50 [3]: ≤ 100 nM
- GI50 [4]: ≤ 100 nM
- GI50 [5]: ≤ 100 nM

SMILES: O=C(NC(c1ccccn1)C1CC1)c1ccc2[nH]nc(-c3ccc(N4CCC5(CC4)COC5)cc3)c2c1 (stereo not drawn) [Example A15, 3-(4-(2-Oxa-7-azaspiro[3.5]nonan-7-yl)phenyl)-N-(cyclopropyl(pyridin-2-yl)methyl)-1H-indazole-5-carboxamide]
- GI50 [1]: ≤ 100 nM
- GI50 [2]: 100 to 500 nM
- GI50 [3]: ≤ 100 nM
- GI50 [4]: 100 to 500 nM
- GI50 [5]: 100 to 500 nM

SMILES: O=C(N[C@H](c1ccccn1)C1CC1)c1ccc2[nH]nc(-c3ccc(N4CC5(CCOCC5)C4)cc3)c2c1 [Example A18, (S)-3-(4-(7-Oxa-2-azaspiro[3.5]nonan-2-yl)phenyl)-N-(cyclopropyl(pyridin-2-yl)methyl)-1H-indazole-5-carboxamide]
- GI50 [1]: ≤ 100 nM
- GI50 [2]: ≤ 100 nM
- GI50 [3]: ≤ 100 nM
- GI50 [4]: ≤ 100 nM
- GI50 [5]: 100 to 500 nM

SMILES: O=C(N[C@H](c1ccccn1)C1CCCC1)c1ccc2[nH]nc(-c3ccc(N4CC5(CCOCC5)C4)cc3)c2c1 [Example A19, (S)-3-(4-(7-Oxa-2-azaspiro[3.5]nonan-2-yl)phenyl)-N-(cyclopentyl(pyridin-2-yl)methyl)-1H-indazole-5-carboxamide]
- GI50 [1]: ≤ 100 nM
- GI50 [2]: ≤ 100 nM
- GI50 [3]: ≤ 100 nM
- GI50 [4]: ≤ 100 nM
- GI50 [5]: 100 to 500 nM

SMILES: O=C(N[C@H](c1ccccn1)C1CCCC1)c1ccc2[nH]nc(-c3ccc(N4CC5(CCO5)C4)cc3)c2c1 [Example A20, (S)-3-(4-(1-oxa-6-azaspiro[3.3]heptan-6-yl)phenyl)-N-(cyclopentyl(pyridin-2-yl)methyl)-1H-indazole-5-carboxamide]
- GI50 [1]: ≤ 100 nM
- GI50 [2]: ≤ 100 nM
- GI50 [3]: ≤ 100 nM
- GI50 [4]: ≤ 100 nM
- GI50 [5]: ≤ 100 nM
